According to paper PMC9601193, “Intracellular Metabolomics Identifies Efflux Transporter Inhibitors in a Routine Caco-2 Cell Permeability Assay—Biological Implications” (Cells, 2022):
One block for each compound: values may come before it.

How the values were obtained:
Pgp [1] = target: T1, Pgp (Homo sapiens, UniProt P08183); assay: Caco-2 bidirectional transport of Pgp probe indinavir with/without inhibitor or in Pgp KO cells; assay type: cell-based; details: for specificity of Pgp inhibition among Pgp, BCRP and MRP2 (functional experiments): zosuquidar 10 µM, valspodar 50 nM
T1 construct: express major uptake and efflux transporters on the apical and basal membranes, including the key efflux transporters Pgp, BCRP and MRP2; host or cells: Caco-2 (HTB-37); C2BBe1 clone WT/KO cells from SOLVO Biotechnology for the knockout comparisons
Procedure: (§1) The compounds were first added into either the apical or basolateral chamber in the absence or presence of the relevant inhibitor. After 2 h incubation with the compounds, the samples from the apical and basolateral chamber were collected.
(§2) For Pgp and BCRP functional analysis, a 75 µL aliquot of the samples was collected from both the donor and acceptor compartments and transferred to a new 96-well microplate (V bottom) containing 75 µL of methanol. 10 µL from the mixture was collected and transferred to a new plate containing 90 µL of 50:50 methanol/water. The concentration of probe substrates in the samples was then quantified using LC-MS.
The flow rate was 0.6 mL/min, and the total run time was 3.5 min. The sample injection volume was 2 μL. Sample data were acquired using Analyst software.
(§3) The apparent permeability (Papp) of the substrate was calculated as follows: • Papp = (dQ/dt)/(C0 × Vr A) • dQ/dt = slope of the linear portion of the permeated amount versus time curve (µmol/l/s) • A = effective surface area of the Transwell insert (0.11 cm^2) • C0 = initial concentration of the substrate (µmol/L) • Vr = the volume of the receiver chamber (mL).
(§4) The efflux ratio was calculated as follows: • Papp (B to A)/Papp (A to B)
(§5) Pgp, BCRP and MRP2 knockout (stable) Caco-2 cells (C2BBe1) were kindly provided by SOLVO Biotechnology (Szeged, Hungary). The individual transporters were knocked out using zinc finger nuclease technology. The knockout cell lines were cultured for 21 days except BCRP KO, which was grown for 25 days in a 96-well format. Assay conditions were in accordance with the Caco-2 assay from our lab. Transport analysis was performed according to the protocol described above. After transport experiments, metabolites were extracted from Caco-2 cells and analyzed according to the protocols described below.

MRP2 [2] = target: T2, MRP2 (Homo sapiens, UniProt Q92887); assay: Caco-2 efflux of MRP2 probe CDCF (fluorescence) with/without inhibitor or in MRP2 KO cells; assay type: cell-based; details: for specificity of MRP2 inhibitors (functional assessment, Supplementary Table S1): Caco-2
T2 construct: express major uptake and efflux transporters on the apical and basal membranes, including the key efflux transporters Pgp, BCRP and MRP2; host or cells: Caco-2 (HTB-37); C2BBe1 clone WT/KO cells from SOLVO Biotechnology for the knockout comparisons
Procedure: as §1
For MRP2 functional analysis, CDCF-DA (non-fluorescent diacetate), was added on the apical or basal chamber which diffuses into the cells and is converted into fluorescent CDCF (MRP2 substrate) by intracellular esterases. Efflux of the fluorescent CDCF was monitored by transferring 75 μL of samples from both the donor and acceptor compartments to a clear-bottomed black 96-well plate. The CDCF fluorescence was then measured on the plate reader with 485 (exc)/528 (em) nm wavelength.
as §3, §4, §5

Pgp [3] = target: T1, Pgp; assay: Intracellular LC-MS metabolomic signature and inhibition score for Pgp in Caco-2 cells; assay type: cell-based; details: some of the metabolites
Procedure: (§6) Samples were dried using a nitrogen evaporator.
(§7) The sample injection volume was 2 μL. Sample data were acquired using Analyst software. All the samples were randomized to avoid analytical bias.
For example, for Pgp, the percentage changes in Pgp signature metabolites with Pgp inhibition were summed to calculate a Pgp inhibition score for that inhibitor.

MTHFR = assay: Protein expression by Simple Western (WES/JESS) in Caco-2 cells: MTHFR; assay type: cell-based, human; details: 24 h; zosuquidar 5 µM, Ko143 10 µM, MK571 200 µM; normalized to vinculin
Procedure: (§8) Cells were grown in a 6-well plate for 48 h and in a transwell for 10 days. Cells in the 6-well plates were incubated with inhibitors for 24 h and the cells in the transwell plate were incubated with inhibitors for 2 h to replicate metabolic effects. Protein extraction was performed once the cells were 90% confluent. Lysis buffer solution was prepared by adding 200 µL of phosphatase inhibitor cocktail 2 and 3 (Sigma-Aldrich, Dorset, UK), 100 µL of 100 mM PMSF protease inhibitor and 1 mL of CST lysis buffer (Cell Signaling Technology, Danvers, MA, USA) to 8.5 mls of deionized water. In the 6-well plate, cells were washed twice with ice-cold PBS, lysed with 500 μL of cold lysis buffer and transferred to Eppendorf tubes. The KO cells were lysed immediately after being taken out of the liquid nitrogen stock. […] The total protein concentration of the lysate was determined using Direct Detect™ infrared (IR)-based quantification system. […]
(§9) Different loading controls were used, depending on molecular weight and relative intensities of signal, and conditions were optimized accordingly. Protein samples were analyzed on a JESS/WES® (Simple Western system, Bio-Techne, Abingdon, UK) according to the manufacturer’s instructions (Protein Simple, Bio-Techne, Abingdon, UK) using a 12–230 kDa separation module. […]

thymidylate synthase = assay: Protein expression by Simple Western (WES/JESS) in Caco-2 cells: thymidylate synthase; assay type: cell-based, human; details: 24 h incubation; zosuquidar 5 µM, MK571 200 µM
Procedure: as §8, §9

methionine synthase = assay: Protein expression by Simple Western (WES/JESS) in Caco-2 cells: methionine synthase; assay type: cell-based, human; details: 2 and 24 h incubation; zosuquidar 5 µM
Procedure: as §8, §9

[4] = parameters: method as in PMID 33312947; details: trials testing efficacy against multidrug resistance; cited from earlier work
MRP2 [5] = target: T2, MRP2; assay: Intracellular LC-MS metabolomic signature and inhibition score for MRP2 in Caco-2 cells; assay type: cell-based
Procedure: as §6, §7

[6] = tested on: Adenosylhomocysteinase (AHCY); assay: Protein expression by Simple Western (WES/JESS) in Caco-2 cells: AHCY; assay type: cell-based, human; details: 2 and 24 h incubation; MK571 200 µM
Procedure: as §8, §9

[7] = tested on: Serine Hydroxymethyltransferase 1 (SHMT1); assay: Protein expression by Simple Western (WES/JESS) in Caco-2 cells: SHMT1; assay type: cell-based, human; details: 2 and 24 h; MK571 200 µM
Procedure: as §8, §9

BCRP [8] = target: T3, BCRP (Homo sapiens, UniProt Q9UNQ0); assay: Caco-2 bidirectional transport of BCRP probe estrone-3-sulfate with/without inhibitor or in BCRP KO cells; assay type: cell-based; parameters: express major uptake and efflux transporters on the apical and basal membranes, including the key efflux transporters Pgp, BCRP and MRP2; host or cells: Caco-2 (HTB-37); C2BBe1 clone WT/KO cells from SOLVO Biotechnology for the knockout comparisons; details: C2BBe1 Caco-2 BCRP KO vs WT
T3 sequence (Q9UNQ0 1-655): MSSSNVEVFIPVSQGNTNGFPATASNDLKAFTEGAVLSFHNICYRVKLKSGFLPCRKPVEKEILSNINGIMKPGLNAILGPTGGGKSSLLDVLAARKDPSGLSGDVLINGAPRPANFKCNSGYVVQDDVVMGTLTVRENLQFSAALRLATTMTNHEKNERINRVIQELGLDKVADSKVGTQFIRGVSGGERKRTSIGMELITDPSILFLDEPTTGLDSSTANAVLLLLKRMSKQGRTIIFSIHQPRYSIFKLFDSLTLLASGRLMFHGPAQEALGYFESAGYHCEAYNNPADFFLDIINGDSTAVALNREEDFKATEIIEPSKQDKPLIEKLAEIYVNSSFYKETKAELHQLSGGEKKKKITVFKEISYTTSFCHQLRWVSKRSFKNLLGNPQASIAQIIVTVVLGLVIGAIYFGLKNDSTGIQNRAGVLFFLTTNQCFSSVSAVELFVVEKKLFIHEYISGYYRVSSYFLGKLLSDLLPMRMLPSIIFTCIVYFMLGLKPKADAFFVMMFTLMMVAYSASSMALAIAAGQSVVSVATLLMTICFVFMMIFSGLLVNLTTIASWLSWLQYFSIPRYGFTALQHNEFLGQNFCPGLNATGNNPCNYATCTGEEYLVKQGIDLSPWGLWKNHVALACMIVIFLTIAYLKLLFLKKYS
Procedure: as §1, §2
The flow rate was 0.6 mL/min, and the total run time was 3.5 min. […]
as §3, §4
Pgp, BCRP and MRP2 knockout (stable) Caco-2 cells (C2BBe1) were kindly provided by SOLVO Biotechnology (Szeged, Hungary). […] After transport experiments, metabolites were extracted from Caco-2 cells and analyzed according to the protocols described below.

BCRP [9] = target: T3, BCRP; assay: Intracellular LC-MS metabolomic signature and inhibition score for BCRP in Caco-2 cells; details: Ko143 10 µM, Fumitremorgin C 5 µM, novobiocin 30 µM; Caco-2, 2 h
Procedure: First, 2 × 10^4 cells/well were seeded on a 96 Transwell™ thin film polycarbonate membrane (0.4 µM pore size). Plates were incubated at 37 °C, 5% CO2 and 95% humidity. The cells were grown for 10 days and then treated on day 10. The monolayer integrity was checked prior to the experiment by measuring the transepithelial electrical resistance (TEER) using a TEER electrode. All TEER values ranged between 2000 and 4000 ohms∗cm^2, values greater than 1000 ohms∗cm^2 were used as an indicator of an intact monolayer.
MK571 (200 µM, n = 3) and Benzbromarone (66.7 µM, n= 1) were used to inhibit MRP2 activity. The compounds were diluted to the final concentration in HBSS (pH 7.4); 1% DMSO in HBSS was used as a control. Before treatment, media was removed, and the cells were washed twice with HBSS. […]
MultiQuant® software (v 3.0.3) was used for peak integration and the peak area for each metabolite was then exported. All data sets were normalized using the total sum of the quantified analyte area. The data were analyzed by SIMCA® 15/17 for multivariate analysis including Orthogonal Partial Least Squares–Discriminant Analysis (OPLS-DA). […]
The percentage difference for the normalized area of each (transporter) signature metabolite was calculated using the following equation:100 × (treated—control)/control

T1 sequence (P08183 whole entry): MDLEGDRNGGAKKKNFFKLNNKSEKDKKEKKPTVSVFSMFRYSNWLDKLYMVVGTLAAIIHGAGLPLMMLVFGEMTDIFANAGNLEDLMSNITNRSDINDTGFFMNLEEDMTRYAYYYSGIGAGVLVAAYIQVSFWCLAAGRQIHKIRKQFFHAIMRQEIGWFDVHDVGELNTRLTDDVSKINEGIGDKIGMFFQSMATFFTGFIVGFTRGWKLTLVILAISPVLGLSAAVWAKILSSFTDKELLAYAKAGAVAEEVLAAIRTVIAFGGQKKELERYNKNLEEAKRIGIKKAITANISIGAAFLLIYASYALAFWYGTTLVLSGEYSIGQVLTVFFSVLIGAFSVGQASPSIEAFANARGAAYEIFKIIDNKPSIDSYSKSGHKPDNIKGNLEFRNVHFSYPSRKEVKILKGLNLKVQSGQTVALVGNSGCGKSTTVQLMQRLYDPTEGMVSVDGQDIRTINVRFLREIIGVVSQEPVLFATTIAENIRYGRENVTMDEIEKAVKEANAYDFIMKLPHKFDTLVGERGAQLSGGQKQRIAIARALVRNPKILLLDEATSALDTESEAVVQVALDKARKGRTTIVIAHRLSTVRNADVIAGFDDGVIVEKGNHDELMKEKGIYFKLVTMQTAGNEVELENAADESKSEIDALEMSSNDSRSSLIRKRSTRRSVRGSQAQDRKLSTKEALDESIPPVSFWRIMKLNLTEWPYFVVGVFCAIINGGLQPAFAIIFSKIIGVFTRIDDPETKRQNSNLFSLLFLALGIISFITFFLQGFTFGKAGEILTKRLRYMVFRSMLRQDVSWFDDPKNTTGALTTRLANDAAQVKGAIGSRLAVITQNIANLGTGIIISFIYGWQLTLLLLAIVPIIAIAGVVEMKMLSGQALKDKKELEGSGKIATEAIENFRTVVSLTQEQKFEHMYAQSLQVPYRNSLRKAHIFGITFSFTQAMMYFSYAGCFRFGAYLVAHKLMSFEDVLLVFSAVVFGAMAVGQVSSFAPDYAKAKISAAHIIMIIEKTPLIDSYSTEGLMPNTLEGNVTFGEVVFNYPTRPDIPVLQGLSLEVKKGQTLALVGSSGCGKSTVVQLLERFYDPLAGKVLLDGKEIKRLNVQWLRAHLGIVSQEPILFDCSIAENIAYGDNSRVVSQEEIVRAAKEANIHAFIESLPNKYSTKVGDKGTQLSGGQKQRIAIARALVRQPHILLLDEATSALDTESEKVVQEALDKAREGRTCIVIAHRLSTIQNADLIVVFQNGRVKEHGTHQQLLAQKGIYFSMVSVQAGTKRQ
T2 sequence (Q92887 whole entry): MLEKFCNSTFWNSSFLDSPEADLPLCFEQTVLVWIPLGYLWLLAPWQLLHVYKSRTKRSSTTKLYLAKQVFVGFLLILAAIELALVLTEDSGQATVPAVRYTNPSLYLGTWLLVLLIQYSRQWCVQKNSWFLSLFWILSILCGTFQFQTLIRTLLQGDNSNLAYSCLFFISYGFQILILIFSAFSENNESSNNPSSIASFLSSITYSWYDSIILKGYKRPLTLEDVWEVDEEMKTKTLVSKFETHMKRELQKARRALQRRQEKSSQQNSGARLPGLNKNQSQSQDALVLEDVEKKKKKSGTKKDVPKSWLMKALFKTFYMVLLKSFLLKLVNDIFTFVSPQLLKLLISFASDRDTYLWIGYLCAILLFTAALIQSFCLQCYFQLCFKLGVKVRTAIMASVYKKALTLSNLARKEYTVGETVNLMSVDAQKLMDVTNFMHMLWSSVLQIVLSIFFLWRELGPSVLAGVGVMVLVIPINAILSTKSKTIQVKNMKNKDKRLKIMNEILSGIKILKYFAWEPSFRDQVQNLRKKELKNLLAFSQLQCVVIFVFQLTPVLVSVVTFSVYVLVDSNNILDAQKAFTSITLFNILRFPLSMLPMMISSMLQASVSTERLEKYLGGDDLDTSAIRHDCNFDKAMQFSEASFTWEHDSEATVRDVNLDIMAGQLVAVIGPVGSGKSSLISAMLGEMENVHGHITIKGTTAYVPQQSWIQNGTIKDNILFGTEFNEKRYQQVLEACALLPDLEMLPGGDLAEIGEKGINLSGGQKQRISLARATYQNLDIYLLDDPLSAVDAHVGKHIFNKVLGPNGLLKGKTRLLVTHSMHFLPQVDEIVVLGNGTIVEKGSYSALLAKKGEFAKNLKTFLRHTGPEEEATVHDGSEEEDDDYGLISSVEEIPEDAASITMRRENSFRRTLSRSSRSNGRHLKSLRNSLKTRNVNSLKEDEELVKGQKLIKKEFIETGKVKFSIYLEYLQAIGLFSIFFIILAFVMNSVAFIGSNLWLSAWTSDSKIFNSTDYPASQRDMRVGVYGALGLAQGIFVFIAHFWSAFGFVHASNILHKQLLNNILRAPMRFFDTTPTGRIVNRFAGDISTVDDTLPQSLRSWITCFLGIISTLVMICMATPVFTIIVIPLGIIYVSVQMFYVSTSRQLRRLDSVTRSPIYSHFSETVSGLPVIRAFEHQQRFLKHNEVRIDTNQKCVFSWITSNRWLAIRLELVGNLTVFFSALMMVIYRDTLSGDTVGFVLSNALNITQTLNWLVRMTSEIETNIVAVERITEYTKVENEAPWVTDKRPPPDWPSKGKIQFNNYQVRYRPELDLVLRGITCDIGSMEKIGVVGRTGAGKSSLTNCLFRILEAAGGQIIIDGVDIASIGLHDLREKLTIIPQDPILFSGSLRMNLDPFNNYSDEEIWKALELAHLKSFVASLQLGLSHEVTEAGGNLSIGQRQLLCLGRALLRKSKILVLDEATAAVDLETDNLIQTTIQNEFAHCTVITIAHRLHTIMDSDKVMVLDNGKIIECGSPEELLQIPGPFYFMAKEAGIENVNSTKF

Compound: CCc1oc2ccccc2c1C(=O)c1cc(Br)c(O)c(Br)c1 [benzbromarone, Benzbromarone]
- specificity of MRP2 inhibitors (functional assessment, Supplementary Table S1) (MRP2 [2]): lack of specificity

Compound: O[C@@H](COc1cccc2ncccc12)CN1CCN([C@@H]2c3ccccc3[C@@H]3[C@H](c4ccccc42)C3(F)F)CC1 [zosuquidar]
- transcellular transport of indinavir in presence of inhibitor (Pgp [1]; Caco-2 monolayer, indinavir 10 µM, 2 h): inhibited
- specificity of Pgp inhibition among Pgp, BCRP and MRP2 (functional experiments) (Pgp [1]): specifically inhibit Pgp
- change of Pgp signature metabolites with increasing inhibitor concentration (Pgp [3]): concentration dependent change
- MTHFR protein expression (MTHFR): increase
- thymidylate synthase expression (thymidylate synthase): reduced
- methionine synthase expression (methionine synthase): increase
- toxicity observed in clinical trials [4]: neurotoxicity

Compound: CN(C)C(=O)CCSC(SCCC(=O)O)c1cccc(/C=C/c2ccc3ccc(Cl)cc3n2)c1 (stereo not drawn) [MK571]
- specificity of MRP2 inhibitors (functional assessment, Supplementary Table S1) (MRP2 [2]): lack of specificity
- CDCF efflux in presence of inhibitor (MRP2 [2]; Caco-2 monolayer, CDCF 10 µM, 2 h): markedly reduced
- change of MRP2 signature metabolites with increasing inhibitor concentration (MRP2 [5]): concentration-dependent change
- MTHFR protein expression (MTHFR): significant decrease
- thymidylate synthase expression (thymidylate synthase): reduced
- Adenosylhomocysteinase (AHCY) protein levels [6]: significantly reduced
- Serine Hydroxymethyltransferase 1 (SHMT1) expression [7]: significant reduction

Compound: 5(6)-carboxy-2′,7′-dichlorofluorescein [CDCF]
- efflux ratio in MRP2 KO cells in comparison with wild type cells (MRP2 [2]; C2BBe1 Caco-2 MRP2 KO vs WT): reduced

Compound: COc1ccc2c3c([nH]c2c1)[C@H](C=C(C)C)N1C(=O)[C@@H]2CCCN2C(=O)[C@@H]1C3 [Fumitremorgin C]
- intracellular levels of glutamate, hypoxanthine and xanthine (BCRP [9]): decreased
- intracellular pantothenate levels (BCRP [9]): increased

Other lines, results leading:

- Pgp inhibition compared to other additional inhibitors (Pgp [1]; validation inhibitors of Figure 5C): weaker interaction with Pgp
Compound: CN(C)CCCN1c2ccccc2Sc2ccc(Cl)cc21 [chlorpromazine]

- efflux ratio in BCRP KO cells in comparison with wild type cells (BCRP [8]): reduced
Compound: C[C@]12CC[C@@H]3c4ccc(OS(=O)(=O)O)cc4CC[C@H]3[C@@H]1CCC2=O [estrone-3-sulfate]

- specificity of Pgp inhibition among Pgp, BCRP and MRP2 (functional experiments) (Pgp [1]): specifically inhibit Pgp
Compound: C/C=C/C[C@@H](C)C(=O)[C@H]1C(=O)N[C@@H](C(C)C)C(=O)N(C)CC(=O)N(C)[C@@H](CC(C)C)C(=O)N[C@@H](C(C)C)C(=O)N(C)[C@@H](CC(C)C)C(=O)N[C@@H](C)C(=O)N[C@H](C)C(=O)N(C)[C@@H](CC(C)C)C(=O)N(C)[C@@H](CC(C)C)C(=O)N(C)[C@@H](C(C)C)C(=O)N1C [valspodar]
